Reference: patent US10526317B2, “Benzocyanine compounds” (PIERCE BIOTECHNOLOGY, INC., priority 2012, dated 2020)
Entries after “also recorded” stand apart in the source; their conditions may differ.

Columns and labels:
lamin A [1] = assay: Immunofluorescence detection of lamin A in U2OS cells, dye-GAM secondary (FIG. 29A-C and repeat); type: cell-based, human; conditions: for Mean Total Intensity, Negative control: no primary antibody
Experimental: In the indicated experiments, the inventive compounds and commercial dye were evaluated for immunofluorescence in a cell based assay using the following protocol. Frozen U20S cell plates which were stored at −80° C. were thawed for 45 minutes at 50° C. Storage buffer (PBS) was removed and the cells were permeabilized for 15 minutes with 0.1% Triton-X100 in 1×PBS buffer (100 μl/well). The cell plate was blocked for 60 minutes in 2% BSA/PBS-0.1% Triton-X100. Primary antibody, either rat anti-Grp94 (5 μg/ml), mouse anti-lamin A (10 μg/ml), or rabbit anti-lamin B1 (10 μg/ml), diluted in 2% BSA/PBS-0.1% Triton-X100 was added to the plate and incubated for 1 hour at room temperature. Control wells contained only 2% BSA/PBS-0.1% Triton-X100 blocker. After incubation, the antibody solution was removed from the plate and the plate was washed three times with 100 μl/well of PBS-0.5% Tween-20 and one time with 100 μl/well PBS. GARat, GAM, or GAR secondary antibodies labeled with various molar excess of the inventive or commercial compound were diluted to 4 μg/ml in PBS and incubated for 1 hour at room temperature. The plates were washed three times with 100 μl/well of PBST and once with 100 μl/well PBS, and Hoechst (diluted to 0.1 μg/ml in PBS) was added to each well (100 μl/well). The plates were scanned on ArrayScan Plate Reader or ToxInsight Instrument.
Quantitative analysis of a repeat experiment of FIG. 29A-C are shown below.

[2] = system: rabbit IgG immunoglobulin; assay: Functional fluorescence plate assay, dye-GAR conjugates; type: binding; conditions: LiCOR Odyssey, FIGS. 17, 19
Experimental: Performance of the dye-GAM conjugates, dye-GAR conjugates, and dye-SA conjugates was evaluated in a functional plate assay. Wells of a 96 white opaque plate or black clear-bottom plate were coated with target proteins mouse IgG immunoglobulin, rabbit IgG immunoglobulin, or biotinylated bovine serum albumin (BBSA). One hundred μl mouse or rabbit IgG, or BBSA at a concentration of 10 μg/ml was applied to the corresponding wells in columns 1 and 2. The target proteins were serially diluted 1:1 from the wells in columns 2 to 11 using 100 μl PBS. One hundred μl of the samples from the wells in column 11 were discarded. One hundred μl PBS was added to the wells in column 12. The plates were incubated overnight at 4° C. and then blocked 2×200 μl with Thermo Scientific SuperBlock® Blocking Buffer. The coated plates were washed 2×200 μl with PBS-Tween and 1×200 μl with PBS. Based on the calculated concentrations, conjugates were diluted 1:250 in PBS, added to the corresponding plates (100 μl/well) and then incubated for one hour in the dark. The plates were washed with 2×200 μl with PBS-Tween and 1×200 μl with PBS and filled with PBS buffer (100 μl/well) prior to scanning the white opaque plates on Tecan Safire using 679 nm excitation/702 nm emission or scanning the black clear-bottom plates on LiCor Odyssey at 700 channel, to detect fluorescence intensity.

[3] = Absorption/emission profiles and spectral properties of the dyes; type: physicochemical
Experimental: The following properties of 679 Compound 1-NHS were compared with commercially available dyes.
Emission/excitation profiles for inventive and commercial compounds was determined by reconstituting the compounds in DMF at 10 mg/ml and then diluting in PBS buffer pH 7.2 to 10 μg/ml. Absorbance spectra were collected on Cary UV spectrophotometer and emission spectra were collected on Tecan Safire, shown in FIG. 1 where solid lines represent absorbance spectra and dashed lines represent emission spectra, for DyLight 680-NHS (purple), DyLight 680B-NHS (blue), 679 Compound 1-NHS (red), and Company B Compound-NHS (black). The maximum absorbance and emission for each compound is shown below.
The following properties of 679 Compound 1-NHS, 679 Compound 4/4-NHS (V08-15173), and 679 Compound 4/4-NHS (V10-04152) were compared with commercially available dyes.

[4] = Photobleaching without anti-fade, U2OS cells stained with lamin B1/dye-conjugated GAR; type: physicochemical
Experimental: Photobleaching of inventive and commercial compounds without anti-fade reagent was examined. U2OS cells stained with lamin B1/dye-conjugated GAR were exposed to bright light (3.4V) for 8 sec at intervals of 1 sec, the overall capture amounting to a total of about 15 min using the TR filter Obj.: 20× NA: 0.4 on the Zeiss Axio Observer .Z1 microscope. The image stacks collected from the time-lapse experiment were analyzed using ImageJ software to determine the decay rate of fluorescence intensity. The raw intensity was normalized to initial intensity for each conjugate and the photobleaching curve was plotted against time, as shown in FIG. 48. Immunostaining with 679 Compound 4/4 conjugate had shown about 2 to 3-fold brighter staining intensity compared to DyLight 680 Dye.

[5] = In vivo biodistribution and clearance of free dye; parameters: species or system nude mice; conditions: 100 μL of 1 mg/mL hydrolyzed dye IV via retro orbital plexus, imaged to 24 h
Experimental: In in vivo biodistribution, the mice received intravenous dye injections via the retro orbital plexus and were imaged on a Carestream MSFX Imager (690 nm excitation/750 nm emission) before injection and at 0 h, 3 h, 6 h, 12 h, and 24 h post injection. After the final time point, animals were sacrificed and organs were collected for ex vivo imaging. Toxicity was evaluated by investigating the dissected tissue section.
Biodistribution and clearance was investigated in the live animals over time by measuring the clearance or specific retention of the dye/labeled target. Experiments were performed in triplicate on nude mice. 100 μL of 1 mg/mL hydrolyzed dye solution was IV injected via the retro orbital plexus. Animals were imaged using 690 nm excitation and 750 nm emission at 140 mm FOV on a Carestream XTREME (10 s) Imager. Images taken before (pre) and at 0 min, 10 min, 30 min, 1 hour, 3 hour, 6 hour, 12 hour and 24 hours post injection are shown in FIG. 44B. After the final time point, the organs were collected for ex vivo imaging to confirm and quantify accumulation of the agent in tumors, tissues, and other organs (heart, liver, spleen, GI tract, lungs and kidney), as shown in FIG. 44C using triplicate mice. 679 Compound 4/4 allowed for probe conjugation, high fluorescence with excellent sensitivity for deep-tissue in vivo imaging, and target quantification in tissues.

lamin A [6] = assay: Immunofluorescence of nuclear envelope in U2OS cells, mouse anti-lamin A, dye-GAM (FIG. 43); type: cell-based, human; conditions: FIG. 43A
Experimental: U2OS (human bone cancer) or HeLa cells were seeded at 5,000 cells per well in 96-well plates and incubated for 18-20 hours at 37° C., 5% CO2 in a humidified incubator. The cells were fixed with 4% paraformaldehyde and permeabilized with 0.1% Thermo Scientific Surfact-Amps X-100 Detergent, then blocked for nonspecific IgG binding. Cells were incubated with a target-specific primary antibody for 30 minutes at room temperature (RT). After washing with PBS containing 0.05% Tween™-20 Detergent Solution, cells were incubated for 30 minutes at RT with 4 μg/mL of the appropriate secondary antibody conjugated with 679 Compound 4/4 and compared to similarly conjugated counterparts (DyLight 680, Alexa Fluor™ 680, and CF™ 680 Dyes) for 30 minutes at RT. The conjugates were affinity purified goat anti-mouse IgG (H+L) (GAM) or goat anti-rabbit IgG (H+L) (GAR). […] Microscopy time lapse experiments to measure dye photostability were performed using the appropriate shift-free optical filter set with a 40×/1.3 oil objective on a Zeiss Axio Observer™ .Z1 fluorescence microscope using an ORCA-ER-1394 Hamamatsu, CCD Digital Camera and the AxioVison™ Release 4.7 Software. […]
The nuclear envelop in U2OS cells was fluorescently labeled with mouse anti-lamin A primary antibody and detected with goat anti-mouse conjugated to 679 Compound 4/4-NHS, DyLight 680-NHS, Alexa Fluor 680-NHS and CF 680-SE Dyes. […]

[7] = Dye toxicity, H&E histology of heart, liver, spleen, lungs, kidney; type: in vivo; conditions: H&E staining of tissues after 24 h
Experimental: After the final time point, animals were sacrificed and their organs collected for ex vivo imaging to confirm and quantify dye accumulation in tumors, tissues, and other organs such as heart, liver, spleen, GI tract, lungs, and kidney. Images were taken before (pre), and at 0 min, 10 min, 30 min, 1 hour, 3 hour, 6 hour, 12 hour, and 24 hour post injection. To test dye toxicity, heart, liver, spleen, lungs and kidney tissues were gathered from one mouse from each cohort, fixed, stained with hematoxylin and eosin (H&E), and evaluated.
Colorimetric images were acquired at 20× on a Nikon 90i microscope.

lamin A [8] = assay: Immunofluorescence, U2OS cells, mouse anti-lamin A, dye-GAM secondary (FIG. 25); type: cell-based, human
Experimental: The inventive compounds and commercial dye were evaluated for immunofluorescence in a second cell based assay using the following protocol. Frozen U20S cell plates stored at −20° C. were placed overnight at 4° C. Storage buffer (PBS) was removed and the cells were permeabilized for 15 min (100 μl/well) with 0.1% Triton-X100 in 1×PBS buffer. Plates were blocked for 30 min in 2% BSA in 1× PBS-0.1% Trion-X100. Primary antibodies diluted in 2% BSA in 1×PBS-0.1% Trion-X100 were added to the plates (column 1-11; column 12 included only blocker) and incubated five hours at room temperature. Mouse anti-lamin A was added at 2 μg/ml and rabbit anti-lamin B1 was added at 4 μg/ml. After incubation, the antibody solution was removed from the plates and the plates were washed PBS-0.5% Tween-20 (2×100 μl/well). Next, GAM and GAR secondary antibodies labeled with DyLight 680-NHS, DyLight 680B-NHS, 679 Compound 1-NHS, and Cy5.5 Mono Ester were diluted to 4 μg/ml in PBS and incubated with the cells for one hour at room temperature. […], DyLight 680B-NHS, 679 Compound 1-NHS, […] PBS and then serially diluted 1:1 in the plate to the following concentrations: 2 μg/ml, 1 μg/ml, 0.5 μg/ml, 0.25 μg/ml, 0.125 μg/ml and/or 0.0625 μg/ml. The plates were washed 3× with 100 μl/well PBS, and Hoechst stain diluted to 0.1 μg/ml in PBS was added to each well (100 μl/well). The plates were scanned on ArrayScan Plate Reader for imaging and quantitation.
Quantitative analysis of FIG. 25 data, expressed as Mean Total Intensity, which is the average total intensity of all pixels within a defined area or defined primary object such as a nucleus, is shown below.

COCC[N+]1=C(/C=C/C=C/C=C2/N(CCCCCC(=O)O)c3ccc4c(S(=O)(=O)[O-])cc(S(=O)(=O)[O-])cc4c3C2(C)C)C(C)(CCCS(=O)(=O)[O-])c2c1ccc1c(S(=O)(=O)[O-])cc(S(=O)(=O)[O-])cc21.[Na+].[Na+].[Na+].[Na+] (centres unmarked) [679 Compound 1/1, 2-{(1E,3E)-5-[3-(5-Carboxypentyl)-1,1-dimethyl-6,8-disulfo-1,3-dihydro-benzo[e]indol-(2E)-ylidene]-penta-1,3-dienyl}-3-(2-methoxy-ethyl)-1-methyl-6,8-disulfo-1-(3-sulfopropyl)-1H-benzo[e]indolium]
Mean Total Intensity (Average) (lamin A [1]; GAM conjugate 4 μg/ml, 2.5 X molar excess): 29229 | Mean Total Intensity (Average) (lamin A [1]; GAM conjugate 4 μg/ml, 5.0 X molar excess): 49279 | Mean Total Intensity (Average) (lamin A [1]; GAM conjugate 4 μg/ml, 7.5 X molar excess): 28782 | Mean Total Intensity (Average) (lamin A [1]; GAM conjugate 4 μg/ml, 10 X molar excess): 30098 | Mean Total Intensity (Average) (lamin A [1]; GAM conjugate 4 μg/ml, 15 X molar excess): 48071 | Mean Total Intensity, Negative control (lamin A [1]; 2.5 X): 5628 | Mean Total Intensity, Negative control (lamin A [1]; 5.0 X): 5859 | Mean Total Intensity, Negative control (lamin A [1]; 10 X): 6115 | Mean Total Intensity, Negative control (lamin A [1]; 15 X): 7277 | S/B (lamin A [1]; repeat experiment, 2.5 X): 8.9 | Mean Total Intensity (Average) (lamin A [1]; repeat experiment, 2.5 X molar excess): 77195 | S/B (lamin A [1]; repeat experiment, 5 X): 16.2 | Mean Total Intensity (Average) (lamin A [1]; repeat experiment, 5 X molar excess): 140772 | S/B (lamin A [1]; repeat experiment, 10X): 7.8 | Mean Total Intensity (Average) (lamin A [1]; repeat experiment, 10X molar excess): 159948 | S/B (lamin A [1]; repeat experiment, 15 X): 12.3 | Mean Total Intensity (Average) (lamin A [1]; repeat experiment, 15 X molar excess): 199626 | Mean Total Intensity, Negative control (lamin A [1]; repeat experiment, 2.5 X): 8711 | Mean Total Intensity, Negative control (lamin A [1]; repeat experiment, 5 X): 8674 | Mean Total Intensity, Negative control (lamin A [1]; repeat experiment, 10X): 20481 | Mean Total Intensity, Negative control (lamin A [1]; repeat experiment, 15 X): 16277 | Raw Fluorescence Intensity, quenching at high molar excess (in words) [2]: saturating at 25×; also recorded: apparent quenching at 1000 ng/well at 25×

COCCOCCOCCOCC[N+]1=C(/C=C/C=C/C=C2/N(CCOCCOCCOCCOCCC(=O)O)c3ccc4c(S(=O)(=O)[O-])cc(S(=O)(=O)O)cc4c3C2(C)CCOCCOCCOCCOC)C(C)(CCOCCOCCOCCOC)c2c1ccc1c(S(=O)(=O)O)cc(S(=O)(=O)O)cc21 (centres unmarked) [679 Compound 4/4]
emits at [3]: 706 nm | excites at [3]: 684 nm | photostability (in words) ([4]; absence of anti-fade agent): slightly less stable than DyLight 680 dye | staining intensity, fold brighter compared to DyLight 680 Dye ([4]; immunostaining): 2 to 3 fold | biodistribution and clearance (in words) [5]: rapid clearance through kidney and/or gastrointestinal tract; also recorded: fast whole-body dye uptake and displayed rapid dye clearance mainly through the kidney and GI tract | staining intensity, fold brighter compared to DyLight 680-GAM, Alexa Fluor 680-GAM and CF 680-GAM (lamin A [6]): 2-3 fold | toxicity (in words) [7]: low intrinsic toxicity; also recorded: No tissue damage was observed from histology

Cy5.5
Mean Total Intensity (lamin A [8]; GAM conjugated at 2X molar excess): 211945 | Mean Total Intensity (lamin A [8]; GAM conjugated at 3X molar excess): 342208 | Mean Total Intensity (lamin A [8]; GAM conjugated at 4X molar excess): 451111
